From patent publication US7045617B2, “Bisbubstrate inhibitors of kinases” (priority 2000, dated 2006)
Like-named read-outs stand apart in the source and are kept apart here. Where a SMILES comes first, the peptide text is derived from it. [ ]: non-standard residue; d: D form. The star is where a group is joined. X1 = Nc1ncnc2c1ncn2[C@@H]1O[C@H](COP(=O)(O)OP(=O)(O)OP(=O)(O)SCC(=O)*)[C@@H](O)[C@H]1O; Phe(4-NH2) = Nc1ccc(C[C@H](N)C(=O)O)cc1; Dap = NC[C@H](N)C(=O)O

Tests used:
[1] = molecular target: activated recombinant IRK (insulin receptor kinase) (Homo sapiens, UniProt P06213); test: Steady-state kinetic analysis of IRK inhibition (kinase assay); assay type: biochemical; conditions: for binding energy: binding to IRK
Sequence of activated recombinant IRK (insulin receptor kinase) (P06213 1005-1310 limits assumed): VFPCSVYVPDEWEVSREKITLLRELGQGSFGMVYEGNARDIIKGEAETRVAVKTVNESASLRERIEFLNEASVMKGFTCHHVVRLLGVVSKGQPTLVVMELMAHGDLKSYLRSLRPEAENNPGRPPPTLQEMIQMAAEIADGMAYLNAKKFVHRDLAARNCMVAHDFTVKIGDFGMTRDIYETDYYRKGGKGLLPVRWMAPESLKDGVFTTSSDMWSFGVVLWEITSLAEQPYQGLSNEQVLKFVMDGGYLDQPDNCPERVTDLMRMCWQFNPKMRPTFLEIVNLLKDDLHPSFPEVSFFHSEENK
Protocol: FIG. 2. […] Assays were carried out using activated recombinant IRK as described previously. 6 a, E/V vs. 1/ATP in the presence of varying. Conditions: fixed IRS727 concentration ([…]), 20 mM MgCl2, 0.5 mM DTT, 6 nM IRK, 0.05% bovine serum albumin, Tris-Acetate pH 7, 10 min reaction time. b, E/V vs. 1/IRS727 in the presence of varying. Conditions same as for a except fixed ATP ([…]), 8 nM IRK and 5 min reaction time.
v=Vm(S)/[Km(1+I/Ki)+S]; v=initial velocity, Vm=maximal velocity, S=substrate concentration, Km=Michaelis constant. […] Conditions: Incubation of […] +/−5 mM 2 for 10 min in reaction buffer (20 mM MgCl2, 0.5 mM DTT, 0.05% BSA, 50 mM Tris-Acetate, pH 7) then dilute 1:50 into reaction buffer containing 1 mM ATP and […] peptide6 IRS939 and measure conversion by HPLC at times shown. To determine koff, data were fit to the equation^17: […]
Assays were carried out using activated recombinant IRK as described previously^6. For E/V vs. 1/ATP plot the conditions were: […] IRS727 concentration, 20 mM MgCl2, 0.5 mM DTT, 6 nM IRK, 0.05% bovine serum albumin, 50 mM Tris-Acetate pH 7, 10 min reaction time. For E/V vs. 1/IRS727 in the conditions were the same except fixed ATP ([…]) was employed, 8 nM IRK and 5 min reaction time.
v=Vm(S)/[Km(1+I/Ki)+S]; v=initial velocity, Vm=maximal velocity, S=substrate concentration, Km=Michaelis constant.

[2] = molecular target: Csk (Homo sapiens, UniProt P41240); test: Inhibition of protein tyrosine kinase Csk; assay type: biochemical; conditions: read-out: Km (ATP)
Sequence of Csk (P41240 whole entry, species assumed): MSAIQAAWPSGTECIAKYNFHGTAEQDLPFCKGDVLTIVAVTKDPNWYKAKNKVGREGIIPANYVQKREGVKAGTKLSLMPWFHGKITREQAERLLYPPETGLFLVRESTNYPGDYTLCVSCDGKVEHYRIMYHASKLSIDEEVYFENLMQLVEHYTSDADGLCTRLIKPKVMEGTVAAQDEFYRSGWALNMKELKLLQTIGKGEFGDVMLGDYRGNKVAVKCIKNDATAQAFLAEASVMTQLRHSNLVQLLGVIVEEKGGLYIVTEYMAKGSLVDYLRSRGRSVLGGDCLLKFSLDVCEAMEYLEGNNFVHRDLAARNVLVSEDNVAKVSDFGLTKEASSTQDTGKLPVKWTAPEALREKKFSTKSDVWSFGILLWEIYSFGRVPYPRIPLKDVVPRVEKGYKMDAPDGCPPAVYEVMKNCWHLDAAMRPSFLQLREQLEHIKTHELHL
Protocol: The specificity of inhibition was also tested by assaying 2 as an inhibitor of the protein tyrosine kinase Csk18. The peptide binding selectivity for Csk is quite different from IRK, and the IRS727 peptide moiety would be predicted to bind poorly to this enzyme^19. […] Thus the bisubstrate analog approach should allow for kinase selectivity based in part on peptide sequence.

[3] = molecular target: T1, recombinant mouse PKA (catalytic subunit) (Mus musculus, UniProt P05132); test: PKA inhibition assay (Calbiochem kit, Dixon plot); assay type: biochemical; conditions: preliminary assays
T1 construct: purchased Calbiochem
Protocol: Reagents from Calbiochem's Protein Kinase A kit were used to perform the inhibition assays and recombinant mouse PKA (catalytic subunit) was also purchased from Calbiochem (enzyme concentration was established by Bradford analysis). A 0.76 mM stock solution of kemptide-ATPγS conjugate was prepared and used to make serial dilutions into an aqueous MgCl2 solution (53 mM), producing a range of inhibitor concentrations from 144 uM to 1.4 μM with Mg2+ concentration of 47.7 mM. These were further diluted into water to produce a range of inhibitor solutions between 51 μM and 507 nM. An 11.25 μL aliquot from each of these solutions was pre-incubated with 7.5 μL of a 1.75 nM PKA enzyme solution (750 ug/uL bovine serum albumin) for 10 minutes at 30° C. after which 12.5 μL of pre-incubation mix was added to 12.5 μL of reaction mix (30 μM cold ATP, 50 μM biotinylated kemptide substrate, 0.04 uCi/μL γP-32 ATP, 80 mM Tris-HCl, 10 mM MgCl2, pH 7.5) to initiate the enzymatic reaction. […] The columns were placed in scintillation vials and radioactivity was measured using a scintillation counter.

[4] = Stability of compound in aqueous solution; assay type: physicochemical
Excerpt: The protected peptide was assembled using solid-phase peptide synthesis using Fmoc chemistry, in which the single tyrosine of IRS727 was replaced with commercially available nitrophenylalanine. The nitro group was reduced with SnCl2 and the aniline function was bromoacetylated via standard coupling conditions. The peptide was cleaved from the resin and deblocked with trifluoroacetic acid, water, and thioanisole and purified by reversed phase HPLC. […] The peptide-ATP conjugate 2 was purified by reversed phase HPLC and characterized by electrospray mass spectrometry and 1H NMR.

For `Nc1ncnc2c1ncn2[C@@H]1O[C@H](COP(=O)(O)OP(=O)(O)OP(=O)(O)O)[C@@H](O)[C@H]1O` [ATP, reference compound], the Km ([1]; substrates of IRK, read-out: Km app) was 71 µM and the Km [2] was 195 µM.
For `CC(=O)N[C@@H](CC(C)C)C(=O)N[C@@H](CCCNC(=N)N)C(=O)N[C@@H](CCCNC(=N)N)C(=O)N[C@@H](C)C(=O)N[C@@H](CNC(=O)CSP(=O)(O)OP(=O)(O)OP(=O)(O)OC[C@H]1O[C@@H](n2cnc3c(N)ncnc32)[C@H](O)[C@@H]1O)C(=O)N[C@@H](CC(C)C)C(=O)NCC(=O)O` [kemptide-ATPγS conjugate] (Ac-LRRA[Dap](X1)LG-OH), the “inhibition of PKA (in words)” value [3] was “inhibitory to PKA” and the Ki ([3]; reversible competitive inhibition model, read-out: calculated Ki versus ATP) was 9.6 µM.
Compound “adenosine 5′-O-3-thiotriphosphate [ATPγS, reference compound]” has a binding energy [1] of 5.1 kcal/mol and a Ki ([1]; linear competitive versus ATP, read-out: Ki versus ATP) of 210 µM.
With `CSCC[C@H](NC(=O)[C@H](Cc1ccc(NC(=O)CSP(=O)(O)OP(=O)(O)OP(=O)(O)OC[C@H]2O[C@@H](n3cnc4c(N)ncnc43)[C@H](O)[C@@H]2O)cc1)NC(=O)[C@H](CC(=O)O)NC(=O)CNC(=O)[C@@H](NC(=O)[C@H](C)NC(=O)[C@@H]1CCCN1C(=O)[C@H](CC(C)C)NC(=O)[C@H](CCCCN)NC(=O)[C@H](CCCCN)NC(=O)[C@H](CCCCN)NC(C)=O)[C@@H](C)O)C(=O)N[C@@H](CC(N)=O)C(=O)N[C@@H](CCSC)C(=O)N[C@@H](CO)C(=O)N1CCC[C@H]1C(=O)N[C@H](C(=O)NCC(=O)N[C@@H](CC(=O)O)C(=O)O)C(C)C` [Compound 2] (Ac-KKKLPATGD[Phe(4-NH2)](X1)MNMSPVGD-OH) the half-life ([4]; acidic solution (pH 2), read-out: half life of decomposition (converted)) was about 2 h, the storage stability ([4]; frozen solution at −80° C. for several weeks) was “without detectable decomposition” and the “time stable in aqueous solution” value ([4]; neutral pH, room temperature) was over 12 h. The “mode of inhibition of IRK” value [1] was “linear competitive inhibitor versus both nucleotide (FIG. 2a) and peptide (FIG. 2b) substrates” and the binding energy [1] was 8.9 kcal/mol.
In the case of `Nc1ncnc2c1ncn2[C@@H]1O[C@H](COP(=O)(O)OP(=O)(O)OP(=O)(O)SCC(=O)Nc2ccccc2)[C@@H](O)[C@H]1O` [Compound 3], the Ki [1] is reported as 114 µM, the “fold tighter binding than ATP-γS alone” value [1] is reported as 2 fold and the “fold weaker as an inhibitor than 2” value [1] is reported as “approximately 300 fold”. The “mode of inhibition of IRK” value [1] was “linear competitive inhibitor of IRK versus ATP”.
